Here are results for three molecules from patent US10112977B2, “Peptide for inducing multinucleation in cells, and use therefor” (Toagosei Co., Ltd., priority 2014, dated 2018).

Experiment [1] deals with HeLa S3 cells. The experiment is described as follows: Evaluation test 2 of multinucleation-inducing activity (multinucleation induction ratio). The experiment is classed as cell-based, human. The conditions noted are these: 50 μM peptide, 4 days; for number of multinuclear cells (number): cells with two or more nuclei in 1 field of vision, individual test; for multinucleation induction ratio (%): individual test (1 field of vision). How it is done: The multinucleation induction ratio was determined for the multinucleation-inducing synthetic peptides (sample 1 and sample 2) obtained in Example 1. The same HeLa S3 cells as in Example 2 were used for the sample cells. The evaluation test is described in the following.
HeLa S3 cells were seeded into each well of an 8-chamber (well) cell culture slide (also referred to as a chamber) to provide approximately 0.5×10^3 cells per well and were cultured overnight in an incubator under conditions of 5% CO2 and 37° C. The medium used was a common DMEM medium, i.e., DMEM (Wako Pure Chemical industries, Ltd., Cat. No. 043-30085) containing 10% FBS, 100 units/mL of penicillin, and 100 μg/mL of streptomycin. After this overnight culture, the medium in the culture chamber was exchanged for medium obtained by the addition of sample 1 or sample 2 in an amount giving a peptide concentration of 50 μM to DMEM medium prepared by adding 3% FBS, 100 units/mL of penicillin, and 100 μg/mL of streptomycin to the aforementioned DMEM, and subculturing was carried out by culture for 4 days under the same conditions. The control group was a peptide-free group in which only PBS (−) was added in the same volume as the peptide stock solution that was added in the sample addition groups.
After completion of the culture period, the cells in the test groups were subjected to cytoimmunostaining of a cytoplasm marker (calreticulin) nuclear staining as in Example 2. After the execution of the cytoimmunostaining and nuclear staining, the cells each test group were subjected to fluorescence observation using a confocal laser microscope and, for the cells observed in 1 field of vision, the total number of cells and the number of cells presenting two or more nuclei (number of multinucleated cells) were counted. The multinucleation induction ratio (proportion (%) for the number of cells having two or more nuclei with reference to the total number of cells observed in 1 field of vision in the microscopic observation) was calculated using the following formula: multinucleation induction ratio (%)=(number of cells having two or more nuclei)÷(total number of cells)×100. Using these conditions air the evaluation test for the multinucleation induction ratio, the test was carried out independently three times and the average multinucleation induction ratio was calculated by taking the average of the multinucleation induction ratios obtained in the individual tests.

The subject of experiment [2] is HeLa S3 cells. The experiment is described as follows: Evaluation test 1 of multinucleation-inducing activity (calreticulin cytoimmunostaining and DAPI nuclear staining, confocal fluorescence observation). It is filed as cell-based, human. The conditions noted are these: peptide concentration 50 μM, culture for 4 days. The procedure:
To evaluate the multinucleation-inducing activity of the multinucleation-inducing synthetic peptides (sample 1 and sample 2) obtained in Example 1, cytoimmunostaining (fluorescence immunostaining) was performed using calreticulin as the cytoplasm marker and nuclear staining was performed with DAPI (4′,6-diamidino-2-phenylindole). HeLa S3 cells (ATCC (registered trademark), CCL2.2), a cultured cell strain originating from human cervical cancer, were used as the sample cells. The evaluation test is described in the following.
HeLa S3 cells were seeded into each well of a 4-chamber (well) cell culture slide (also referred to as a chamber) to provide approximately 1×10^3 cells per well and were cultured overnight in an incubator under conditions of 5% CO2 and 37° C. The medium used was a common DMEM medium, i.e., DMEM (Wako Pure Chemical Industries, Ltd., Cat. No. 043-30085) containing 10% […], 100 units/mL of penicillin, and 100 μg/mL of streptomycin. After this overnight culture, the medium in the culture chamber was exchanged for medium obtained by the addition, to the aforementioned DMEM medium containing PBS, penicillin and streptomycin, of the sample 1, sample 2, or sample 3 peptide in an amount providing a peptide concentration of 50 μM, and subculturing was carried out by culture for 4 days under the same conditions. The control group was a peptide-free group in which only PBS (−) was added in the same volume as the peptide stock solution that was added in the sample addition groups.
After completion of the culture period, the status of multinucleation in the cells in each test group was observed using the following cytoimmunostaining.
The cells in each test group wore first fixed followed by a blocking treatment. Specifically, the medium in the culture chamber in the test group was first removed and washing was carried out twice with cold PBS (−). A solution prepared by mixing 1 volume of methanol with 1 volume of acetone (methanol/acetone=1:1 solution) was then added and the HeLa S3 cells were fixed by standing for 15 minutes on ice. The methanol/acetone=1:1 solution was then removed acid washing was carried out three times with cold PBS PBS (−) containing 3% BSA (PBS (−) that contained 3% BSA) was added and a blocking treatment was carried out for 1 hour at room temperature. After the passage of the prescribed period of time, the PBS (−) containing 3% BSA was removed and washing with cold PBS (−) was performed three times. […]
The cells in each test group that had been subjected to this cytoimmunostaining were mounted using a cover glass and Slow Fade (Life Technologies Corporation, Cat. No. S36936), which is a DAPI-containing mountant, and fluorescence observation was performed using a confocal laser microscope. […]

Several values for one entry are separate records, joined by “and”; a condition that tells them apart may be missing. Equal entries are not always repeated. Peptide text beside a SMILES is read from it.

`CC(C)C[C@H](NC(=O)[C@@H](NC(=O)[C@H](CCCNC(=N)N)NC(=O)[C@H](CCCCN)NC(=O)[C@@H](N)CCCCN)[C@@H](C)O)C(=O)N[C@@H](CCCNC(=N)N)C(=O)N[C@@H](CCCCN)C(=O)N[C@@H](CC(N)=O)C(=O)N[C@@H](CC(=O)O)C(=O)N[C@@H](CCCNC(=N)N)C(=O)N[C@@H](CCCCN)C(=O)N[C@@H](CCCCN)C(=O)N[C@@H](CCCNC(=N)N)C(=O)NCC(=O)NCC(=O)N[C@@H](CS)C(=O)N1CCC[C@H]1C(=O)N[C@@H](CC(=O)O)C(=O)NCC(=O)N[C@@H](C)C(=O)N[C@@H](CCCCN)C(=O)N[C@@H](C)C(=O)N[C@@H](CCCNC(=N)N)C(=O)N[C@@H](CS)C(=O)O` [sample 1, KKRTLRKNDRKKR GG CPDGAKARC] (H-KKRTLRKNDRKKRGGCPDGAKARC-OH; N-terminus and C-terminus assumed): in the experiment with HeLa S3 cells [1], the “number of multinuclear cells (number)” value was 12 number and 11 number and 13 number; the “multinucleation induction ratio (%)” value is 41.4% and 39.3% and 41.9%. For the same molecule, in the experiment on HeLa S3 cells [2], the “cells in which a plurality of nuclei had formed (induction of multinucleation), fluorescence observation” value (“cells in which a plurality” below) is “cells in which a plurality of nuclei had formed were observed” and the “number of nuclei per multinucleated cell, compared with sample 2 addition group” value was “significantly larger number of nuclei per cell”.
In the case of `CC(C)C[C@H](NC(=O)[C@@H](NC(=O)[C@H](CCCNC(=N)N)NC(=O)[C@H](CCCCN)NC(=O)[C@@H](N)CCCCN)[C@@H](C)O)C(=O)N[C@@H](CCCNC(=N)N)C(=O)N[C@@H](CCCCN)C(=O)N[C@@H](CC(N)=O)C(=O)N[C@@H](CC(=O)O)C(=O)N[C@@H](CCCNC(=N)N)C(=O)N[C@@H](CCCCN)C(=O)N[C@@H](CCCCN)C(=O)N[C@@H](CCCNC(=N)N)C(=O)NCC(=O)NCC(=O)N[C@@H](CS)C(=O)N[C@@H](CO)C(=O)N[C@@H](CCCNC(=N)N)C(=O)N[C@@H](CCCNC(=N)N)C(=O)N[C@@H](CO)C(=O)N[C@@H](CCCCN)C(=O)N[C@@H](CO)C(=O)N[C@@H](CCCCN)C(=O)N[C@@H](CS)C(=O)O` [sample 2, KKRTLRKNDRKKR GG CSRRSKSKC] (H-KKRTLRKNDRKKRGGCSRRSKSKC-OH; N-terminus and C-terminus assumed), the “average multinucleation induction ratio (%)” value in the experiment with HeLa S3 cells [1] (average of three independent tests) is reported as 35.6%. In addition, in the experiment with HeLa S3 cells [1], the “number of multinuclear cells (number)” value was 9 number and 12 number and 11 number; the “multinucleation induction ratio (%)” value is 30.0% and 37.5% and 39.3%. Further, in the experiment with HeLa S3 cells [2], the “cells in which a plurality” value is given as “cells in which a plurality of nuclei had formed were observed”.
“KKRTLRKNDRKKR (listed as Homo sapiens) [sample 3, reference compound]”: the “cells in which a plurality” value in the experiment on HeLa S3 cells [2] was “cells in which a plurality of nuclei had formed were not observed”.
